Results as given in patent US4861788A, “Antibacterial 1-normon-2-yl-heterocyclic compounds” (Beecham Group plc, priority 1983, dated 1989).
Values after ≈ are worked out from the molar mass of the structure shown. Read-outs that look alike come from different tables or passages of the source.

Experiments:
M. hyopneumoniae Str. 11 = assay: MIC against Mycoplasma in vitro (Friis broth with agarose); type: cell-based; conditions: Mesomycoplasma hyopneumoniae
M. hyopneumoniae MS 16 = assay: as above; type: cell-based; conditions: Mesomycoplasma hyopneumoniae, MS16, 144 h; M. hyopneumoniae MS 16; 6 days at 37° C; read-out: MIC
M. hyopneumoniae UCD 1 = assay: as above; type: cell-based; conditions: Mesomycoplasma hyopneumoniae, UCD1, 144 h
M. hyopneumoniae TAM 6N = assay: as above; type: cell-based; conditions: Mesomycoplasma hyopneumoniae, TAM6N, 144 h
[1] = test system: M. hyopneumoniae ATCC 25095; assay: as above; type: cell-based; conditions: Mesomycoplasma hyopneumoniae, ATCC25095, 144 h; M. hyopneumoniae ATCC 25095; 6 days at 37° C; read-out: MIC
[2] = test system: M. hyopneumoniae NCTC 101101; assay: as above; type: cell-based; conditions: Mesomycoplasma hyopneumoniae, NCTC101101, 144 h
M. hyorhinis ATCC 23234 = assay: as above; type: cell-based; conditions: Mesomycoplasma hyorhinis, ATCC23234, 144 h; M. hyorhinis ATCC 23234; 6 days at 37° C; read-out: MIC
M. hyorhinis ATCC 25021 = assay: as above; type: cell-based; conditions: Mesomycoplasma hyorhinis, ATCC25021, 144 h; M. hyorhinis ATCC 25021; 6 days at 37° C; read-out: MIC
[3] = test system: M. hyosynoviae ATCC 25591; assay: as above; type: cell-based; conditions: 144 h; M. hyosynoviae ATCC 25591; 6 days at 37° C; read-out: MIC
M. bovis NCTC 10131 = assay: microbe, parasite or virus in culture; type: cell-based; conditions: NCTC10131, 144 h
[4] = test system: M. bovigenitalium ATCC 14173; assay: MIC against Mycoplasma in vitro (Friis broth with agarose); type: cell-based; conditions: 144 h; M. bovigenitalium ATCC 14173; 6 days at 37° C; read-out: MIC
M. dispar NCTC 10125 = assay: as above; type: cell-based; conditions: 144 h
M. gallisepticum S6 = assay: as above; type: cell-based; conditions: Mycoplasmoides gallisepticum, 144 h; M. gallisepticum S6; 6 days at 37° C; read-out: MIC
M. pneumoniae ATCC 15492 = assay: as above; type: cell-based; conditions: Mycoplasmoides pneumoniae, ATCC15492, 144 h; M. pneumoniae ATCC 15492; 6 days at 37° C; read-out: MIC
E. coli NCTC 10418 = assay: MIC against veterinary bacteria in vitro (Diagnostic Sensitivity Test Agar); conditions: Escherichia coli, NCTC10418, 18 h
Experimental: (§1) The activity of the normonyl derivatives of the Examples against various veterinarily important bacteria, was assayed in vitro using two-fold serial dilutions in Diagnostic Sensitivity Test Agar inoculated with 10^4 organisms.

S. dublin S7 = assay: as above; conditions: Salmonella enterica, S7, 18 h
Experimental: as §1

S. typhimurium S18 = assay: as above; conditions: Salmonella enterica, 18 h
Experimental: as §1

Bord. bronchiseptica B08 = assay: as above; conditions: Bordetella bronchiseptica, B08, 18 h
Experimental: as §1

Bord. bronchiseptica B09 = assay: as above; conditions: Bordetella bronchiseptica, B09, 18 h
Experimental: as §1

Past. multocida PA1 = assay: as above; conditions: Pasteurella multocida, PA1, 18 h
Experimental: as §1

Past. multocida PA2 = assay: as above; conditions: Pasteurella multocida, PA2, 18 h
Experimental: as §1

Past. haemolytica PA5 = assay: as above; conditions: Mannheimia haemolytica, PA5, 18 h
Experimental: as §1

[5] = test system: Erysipelothrix rhusiopathiae NCTC 8163; assay: as above; conditions: NCTC8163, 18 h
Experimental: as §1

[6] = test system: Corynebacterium pyogenes CY1; assay: as above; conditions: CY1, 18 h
Experimental: as §1

[7] = test system: Staph. aureus B4 (pen. resistant); assay: as above; conditions: Staphylococcus aureus, 18 h
Experimental: as §1

[8] = test system: Staph. aureus 152 (pen. sens); assay: as above; conditions: Staphylococcus aureus, 18 h
Experimental: as §1

[9] = test system: Strep. suis (group D) SPS11; assay: as above; conditions: Streptococcus suis, 18 h
Experimental: as §1

Strep. uberis SPU1 = assay: as above; conditions: Streptococcus uberis, SPU1, 18 h
Experimental: as §1

Strep. dysgalactiae SPD1 = assay: as above; conditions: Streptococcus dysgalactiae, SPD1, 18 h
Experimental: as §1

Strep. agalactiae SPA1 = assay: as above; conditions: Streptococcus agalactiae, SPA1, 18 h
Experimental: as §1

[10] = M. hyopneumoniae TAM 6N, 6 days at 37° C, read-out: MIC
[11] = 144 h, M. hyopneumoniae Str. 11, 6 days at 37° C, read-out: MIC
[12] = M. hyopneumoniae UCD 1, 6 days at 37° C, read-out: MIC
[13] = M. dispar NCTC 10125, 6 days at 37° C, read-out: MIC

Structure (SMILES)	MIC (M. hyopneumoniae MS 16) [µg/mL]	MIC [1] [µg/mL]	MIC (M. hyorhinis ATCC 23234) [µg/mL]	MIC (M. hyorhinis ATCC 25021) [µg/mL]	MIC [3] [µg/mL]	MIC (M. bovis NCTC 10131) [µg/mL]	MIC [4] [µg/mL]	MIC (M. gallisepticum S6) [µg/mL]	MIC (M. pneumoniae ATCC 15492) [µg/mL]	MIC (E. coli NCTC 10418) [µg/mL]	MIC (S. dublin S7) [µg/mL]	MIC (S. typhimurium S18) [µg/mL]	MIC (Bord. bronchiseptica B08) [µg/mL]	MIC (Bord. bronchiseptica B09) [µg/mL]	MIC (Past. multocida PA1) [µg/mL]	MIC (Past. multocida PA2) [µg/mL]	MIC (Past. haemolytica PA5) [µg/mL]	MIC [5] [µg/mL]	MIC [6] [µg/mL]	MIC [7] [µg/mL]	other results
CC(=Cc1nnc(-c2cccc(C#N)c2)o1)CC1OCC(CC2OC2C(C)C(C)O)C(O)C1O (stereo not drawn) [Example 11, 2-(m-Cyanophenyl)-5-(1-normon-2-yl)-1,3,4-oxadiazole A]	0.1 (≈ 0.213 µM)	0.25 (≈ 0.532 µM)	0.1 (≈ 0.213 µM)	0.1 (≈ 0.213 µM)	0.5 (≈ 1.06 µM)	0.05 (≈ 0.106 µM)	0.1 (≈ 0.213 µM)	> 10	> 10	> 80	> 80	> 80	> 80	40 (≈ 85.2 µM)	2.5 (≈ 5.32 µM)	0.312 (≈ 0.664 µM)	10 (≈ 21.3 µM)	40 (≈ 85.2 µM)	> 80	20 (≈ 42.6 µM)	MIC (M. hyopneumoniae Str. 11; STR.11, 144 h): 0.25 µg/mL (≈ 0.532 µM); MIC (M. hyopneumoniae UCD 1): 0.25 µg/mL (≈ 0.532 µM); MIC (M. hyopneumoniae TAM 6N; [10]): 0.25 µg/mL (≈ 0.532 µM); MIC [2]: 0.25 µg/mL (≈ 0.532 µM); MIC (M. dispar NCTC 10125): 0.05 µg/mL (≈ 0.106 µM); MIC [8]: 20 µg/mL (≈ 42.6 µM); MIC [9]: > 80 µg/mL; MIC (Strep. uberis SPU1): 2.5 µg/mL (≈ 5.32 µM); MIC (Strep. dysgalactiae SPD1): 2.5 µg/mL (≈ 5.32 µM); MIC (Strep. agalactiae SPA1): 5 µg/mL (≈ 10.6 µM)
COC(=O)CCCCCCCCn1nnnc1C=C(C)CC1OCC(CC2OC2C(C)C(C)O)C(O)C1O (stereo not drawn) [Example 13, 1-(8-Methoxycarbonyloctyl)-5-(1-normon-2-yl)-1H-tetrazole A]	> 10	> 10	> 10	> 10	> 10	1 (≈ 1.86 µM)	5 (≈ 9.28 µM)	> 10	> 10	> 80	> 80	> 80	> 80	80 (≈ 149 µM)	40 (≈ 74.3 µM)	5 (≈ 9.28 µM)	> 80	> 80	> 80	> 80	MIC (M. hyopneumoniae Str. 11; [11]): > 10 µg/mL; MIC (M. hyopneumoniae UCD 1; [12]): > 10 µg/mL; MIC (M. hyopneumoniae TAM 6N; [10]): > 10 µg/mL; MIC ([2]; M. hyopneumoniae NCTC 101101, 6 days at 37° C, read-out: MIC): > 10 µg/mL; MIC (M. dispar NCTC 10125; [13]): > 10 µg/mL; MIC [8]: 20 µg/mL (≈ 37.1 µM); MIC [9]: > 80 µg/mL; MIC (Strep. uberis SPU1): 40 µg/mL (≈ 74.3 µM); MIC (Strep. dysgalactiae SPD1): > 80 µg/mL; MIC (Strep. agalactiae SPA1): > 80 µg/mL
CSc1ccc(-c2nnc(C=C(C)CC3OCC(CC4OC4C(C)C(C)O)C(O)C3O)o2)cc1 (stereo not drawn) [Example 3, 2-p-Methylthiophenyl-5-(1-normon-2-yl)-1,3,4-oxadiazole A]	0.5 (≈ 1.02 µM)	1 (≈ 2.04 µM)	0.5 (≈ 1.02 µM)	0.5 (≈ 1.02 µM)	2.5 (≈ 5.1 µM)	0.1 (≈ 0.204 µM)	0.5 (≈ 1.02 µM)	> 10	> 10	> 80	> 80	> 80	> 80	5 (≈ 10.2 µM)	2.5 (≈ 5.1 µM)	2.5 (≈ 5.1 µM)	20 (≈ 40.8 µM)	40 (≈ 81.5 µM)	> 80	2.5 (≈ 5.1 µM)	MIC (M. hyopneumoniae Str. 11; STR.11, 144 h): 1 µg/mL (≈ 2.04 µM); MIC (M. hyopneumoniae UCD 1; [12]): 1 µg/mL (≈ 2.04 µM); MIC (M. hyopneumoniae TAM 6N; [10]): 2.5 µg/mL (≈ 5.1 µM); MIC [2]: 1 µg/mL (≈ 2.04 µM); MIC (M. dispar NCTC 10125; [13]): 0.25 µg/mL (≈ 0.51 µM); MIC [8]: 2.5 µg/mL (≈ 5.1 µM); MIC [9]: 80 µg/mL (≈ 163 µM); MIC (Strep. uberis SPU1): 2.5 µg/mL (≈ 5.1 µM); MIC (Strep. dysgalactiae SPD1): 10 µg/mL (≈ 20.4 µM); MIC (Strep. agalactiae SPA1): 10 µg/mL (≈ 20.4 µM)
CC(=Cc1nnc(-c2cccc([N+](=O)[O-])c2)o1)CC1OCC(CC2OC2C(C)C(C)O)C(O)C1O (stereo not drawn) [Example 2, 2-m-Nitrophenyl-5-(1-normon-2-yl)-1,3,4-oxadiazole A]	0.025 (≈ 0.0511 µM)	0.025 (≈ 0.0511 µM)	0.025 (≈ 0.0511 µM)	0.025 (≈ 0.0511 µM)	0.5 (≈ 1.02 µM)	0.025 (≈ 0.0511 µM)	0.025 (≈ 0.0511 µM)	> 10	2.5 (≈ 5.11 µM)	> 80	> 80	> 80	> 80	80 (≈ 163 µM)	2.5 (≈ 5.11 µM)	1.25 (≈ 2.55 µM)	10 (≈ 20.4 µM)	40 (≈ 81.7 µM)	> 80	5 (≈ 10.2 µM)	MIC (M. hyopneumoniae Str. 11; [11]): 0.025 µg/mL (≈ 0.0511 µM); MIC (M. hyopneumoniae UCD 1; [12]): 0.025 µg/mL (≈ 0.0511 µM); MIC (M. hyopneumoniae TAM 6N): 0.05 µg/mL (≈ 0.102 µM); MIC [2]: 0.05 µg/mL (≈ 0.102 µM); MIC (M. dispar NCTC 10125; [13]): < 0.01 µg/mL; MIC [8]: 10 µg/mL (≈ 20.4 µM); MIC [9]: > 80 µg/mL; MIC (Strep. uberis SPU1): 2.5 µg/mL (≈ 5.11 µM); MIC (Strep. dysgalactiae SPD1): 5 µg/mL (≈ 10.2 µM); MIC (Strep. agalactiae SPA1): 10 µg/mL (≈ 20.4 µM)
